Data on 23 molecules can be found in article PMC12195982, “Design, Synthesis, and In Vitro Evaluation of 4-(Arylchalcogenyl)methyl)-1H-1,2,3-triazol-1-yl-menadione: Exploring Their Potential Against Tuberculosis” (Pharmaceuticals, 2025).

pIC50: −log10 of the molar value. ≈ marks a conversion by molar mass, not a printed value. Where two headings read alike, the source gives them in different places.

Series [1] deals with Mtb. The following applies: cited from earlier work.
For series [2], the system named is Mtb strain H37Rv ATCC 27294. Briefly: Microplate Alamar Blue Assay (MABA), susceptible strain. It is filed as cell-based. Conditions: Mycobacterium tuberculosis. On the technique in general: The colour change of resazurin is a common sign of viable cells or microbes.
The target in series [3] is protein kinase B (PknB). The following applies: cited from earlier work.
Series [4] concerns VERO cell line. The class given is cell-based. The following applies: for cytotoxicity: MTT method, VERO cell line. The method, then:
First, a VERO cell line suspension was prepared and distributed into each of the 96 wells of the culture plate, which was then incubated for 48 h to allow the cells to adhere. After this period, the suspension medium was discarded, and the cells were exposed to the substances under study, leaving them in the wells for a period of between 24 and 48 h. After this, the substance was discarded, and the cells were washed with a buffer, with MTT being added, followed by a 3 h incubation. After this period, the MTT was discarded, and Dimethyl sulfoxide (DMSO) was added to solubilize the formazan crystals generated. Finally, the absorbance of each well of the plate was obtained using a microplate spectrophotometer. The absorbance was quantified based on the readings that the equipment makes, based on the different intensities of the purple color in the wells of the plate; the more purple the well, the more viable cells there are.
For orientation: Tetrazolium dyes change colour on reduction, which living cells bring about.

Setting [5] is: Mtb H37Rv, strain sensitive to all first- and second-line drugs, MABA, triplicate, read-out: MIC.
[6] abbreviates: as quoted in sections 2.2 and 2.3, strain not stated, read-out: MIC (antimycobacterial activity).

On to `O=C1NC(c2ccc(OCc3cn(-c4ccc(F)cc4F)nn3)cc2)Nc2ccccc21` (centres unmarked) [Compound 4], for which the MIC in series [1] (anti-TB action) is 0.78 µg/mL (≈ 1.8 µM).

With `CC1=C(Cn2cc(C[Se]c3cccc(C(F)(F)F)c3)nn2)C(=O)c2ccccc2C1=O` [Compound 9c], in series [2] (setting [5]), the MIC was at most 49.9 µg/mL.

Take `NC(=O)c1cnccn1` [PZA, pyrazinamide, reference compound]: in series [2] (setting [5]), the MIC came to 100 µg/mL (≈ 813 µM).

Regarding `CC1=C(Cn2cc(CSc3ccc(Cl)cc3)nn2)C(=O)c2ccccc2C1=O` [Compound 10b, 2-((4-(((4-chlorophenyl)thiol)methyl)-1H-1,2,3-triazolyl)methyl)-3-methylnaphthalene-1,4-dione], the MIC in series [2] (setting [5]) is over 100 µg/mL.

For the molecule `CC1=C(Cn2cc(CSCc3ccco3)nn2)C(=O)c2ccccc2C1=O` [Compound 10e, 2-((4-(((furan-2-ylmethyl)thiol)methyl)-1H-1,2,3-triazolyl)methyl)-3-methylnaphthalene-1,4-dione], the MIC in series [2] (setting [5]) was over 100 µg/mL.

Regarding `CC1=C(Cn2cc(C[Se]c3c(C)cc(C)cc3C)nn2)C(=O)c2ccccc2C1=O` [Compound 9d, 2-((4-((2,4,6-trimethyl-phenylselanyl)methyl)-1H-1,2,3-triazolyl)methyl)-3-methylnaphthalene-1,4-dione], the MIC in series [2] (setting [5]) is over 99.9 µg/mL.

With `CC1=C(Cn2cc(CSc3ccccc3C)nn2)C(=O)c2ccccc2C1=O` [Compound 10d, 2-methyl-3-((4-((o-methylphenylthiol)methyl)-1H-1,2,3-triazolyl)methyl)naphthalene-1,4-dione], in series [2] (setting [5]), the MIC was over 100 µg/mL.

As for `O=C1c2c(O)ccc(O)c2C(=O)c2c(NCCNCCO)ccc(NCCNCCO)c21` [co-crystallized ligand, 1,4-dihydroxy-5,8-bis({2-[(2-hydroxyethyl)amino]ethyl}amino)-9,10-anthracenedione], in series [3], the pIC50 is 6.10.

With `C/C(=N/N=C1/NC(=O)CS1)c1ccc(-c2ccccc2)cc1` [Compound 2], the MIC in series [1] (anti-TB activity) was 12.5 µg/mL (≈ 40.4 µM).

As to `O=C1NC(c2ccc(OCc3cn(-c4ccc(F)c(F)c4)nn3)cc2)Nc2ccccc21` (centres unmarked) [Compound 5], the MIC in series [1] (anti-TB action) is given as 3.12 µg/mL (≈ 7.2 µM).

Turning to `CC1=C(Cn2cc(C[Se]c3ccccc3)nn2)C(=O)c2ccccc2C1=O` [Compound 9a, 2-methyl-3-((4-((phenylselanyl)methyl)-1H-1,2,3-triazolyl)methyl)naphthalene-1,4-dione], in series [2] (setting [5]), the MIC came to 6.23 µg/mL (≈ 14.8 µM). Besides, in series [2] (setting [6]), the MIC was 6.76 µg/mL (≈ 16 µM). Further, in series [4], the cytotoxicity entry is recorded as “minimal cytotoxicity” and the “toxicity at concentrations of up to 100 µg/mL” value (“toxicity at concentrations” below) was “non-toxic”.

For the molecule `CC1=C(C(C)n2cc(CSc3ccccc3)nn2)C(=O)c2ccccc2C1=O` (centres unmarked) [Compound 10f, 2-methyl-3-(1-(4-((phenylthiol)methyl)-1H-1,2,3-triazolyl)ethyl)naphthalene-1,4-dione], the MIC in series [2] (setting [5]) turned out to be 100 µg/mL (≈ 257 µM).

For the molecule `CC1=C(C(c2ccccc2)n2cc(C[Se]c3ccccc3)nn2)C(=O)c2ccccc2C1=O` (centres unmarked) [Compound 9g, 2-methyl-3-(phenyl(4-((phenylselanyl)methyl)-1H-1,2,3-triazolyl)methyl)naphthalene-1,4-dione], the MIC in series [2] (setting [5]) was 12.5 µg/mL (≈ 25.1 µM). The MIC in series [2] (setting [6]) was found to be 3.12 µg/mL (≈ 6.26 µM). In series [4], the cytotoxicity entry is “minimal cytotoxicity” and the “toxicity at concentrations” value is reported as “non-toxic”.

On to `NNC(=O)c1ccncc1` [INH, isoniazid, reference compound], for which the MIC in series [2] (setting [5]) turned out to be 0.12 µg/mL (≈ 0.875 µM).

Turning to `CC1=C(Cn2cc(CSc3ccccc3)nn2)C(=O)c2ccccc2C1=O` [Compound 10a, 2-methyl-3-((4-((phenylthiol)methyl)-1H-1,2,3-triazolyl)methyl)naphthalene-1,4-dione], the MIC in series [2] (setting [5]) amounted to 100 µg/mL (≈ 267 µM).

Turning to `CC1=C(C(c2ccccc2)n2cc(CSc3ccccc3)nn2)C(=O)c2ccccc2C1=O` (centres unmarked) [Compound 10g, 2-methyl-3-(phenyl(4-((phenylthiol)methyl)-1H-1,2,3-triazolyl)methyl)naphthalene-1,4-dione], the MIC in series [2] (setting [5]) is over 100 µg/mL.

As to `CC1=C(Cn2cc(C[Se]c3ccc(Cl)cc3)nn2)C(=O)c2ccccc2C1=O` [Compound 9b, 2-((4-(((4-chlorophenyl)selanyl)methyl)-1H-1,2,3-triazolyl)methyl)-3-methylnaphthalene-1,4-dione], the MIC in series [2] (setting [5]) worked out at 3.2 µg/mL (≈ 7.01 µM). The MIC in series [2] (setting [6]) was 3.2 µg/mL (≈ 7.01 µM). For the same molecule, in series [4], the cytotoxicity result was “minimal cytotoxicity” and the “toxicity at concentrations” value is recorded as “non-toxic”.

Consider `CC1=C(Cn2cc(C[Se]c3ccc4ccccc4c3)nn2)C(=O)c2ccccc2C1=O` [Compound 9e, 2-methyl-3-((4-((naphthalenylselanyl)methyl)-1H-1,2,3-triazolyl)methyl)naphthalene-1,4-dione], for which the MIC in series [2] (setting [5]) worked out at 99.9 µg/mL (≈ 211 µM).

For the molecule `C=CCC1[Se]c2ccccc2C1=O` (centres unmarked) [Compound 1], the MIC in series [1] (anti-TB activity) is 12.5 µg/mL (≈ 52.7 µM).

Consider `CC1=C(C(c2ccc(C)cc2)n2cc(CSc3ccccc3)nn2)C(=O)c2ccccc2C1=O` (centres unmarked) [Compound 10h, 2-methyl-3-((4-((phenylthiol)methyl)-1H-1,2,3-triazolyl)(p-methylphenyl)methyl)naphthalene-1,4-dione], for which the MIC in series [2] (setting [5]) is over 100 µg/mL.

For `CC1=C(C(C)n2cc(C[Se]c3ccccc3)nn2)C(=O)c2ccccc2C1=O` (centres unmarked) [Compound 9f, 2-methyl-3-(1-(4-((phenylselanyl)methyl)-1H-1,2,3-triazolyl)ethyl)naphthalene-1,4-dione], the MIC in series [2] (setting [5]) is 6.23 µg/mL (≈ 14.3 µM); in series [2] (setting [6]), over 43.6 µg/mL.

Take `CC1=C(C(c2ccc(C)cc2)n2cc(C[Se]c3ccccc3)nn2)C(=O)c2ccccc2C1=O` (centres unmarked) [Compound 9h, 2-methyl-3-((4-((phenylselanyl)methyl)-1H-1,2,3-triazolyl)(p-methylphenyl)methyl) naphthalene-1,4-dione]: the MIC in series [2] (setting [5]) was found to be 24.9 µg/mL (≈ 48.7 µM). Also, in series [4], the cytotoxicity result is “minimal cytotoxicity” and the “toxicity at concentrations” value is “non-toxic”.

In the case of `CC1=C(Cn2cc(CSc3ccc(C)cc3)nn2)C(=O)c2ccccc2C1=O` [Compound 10c, 2-methyl-3-((4-((p-methylphenylthiol)methyl)-1H-1,2,3-triazolyl)methyl)naphthalene-1,4-dione], in series [2] (setting [5]), the MIC was over 100 µg/mL.

A word on the MIC: it is the smallest concentration in the dilution series that meets the test's criterion for growth inhibition. In general, pIC50 refers to the IC50 on a negative log10 scale, so that one unit is a factor of ten.
